Values after ≈ are worked out from the molar mass of the structure shown. Starred links: 1 amine or outer side, 2 acyl side, 3 side chain; linkers in the order of their positions; H or OH if unused. Positions of bridges follow the written chain, without caps; N, C: chain ends. Residues, ends and D or L forms follow the SMILES beside them. Biphenyl(4,4'-CH2)2 = c1cc(-c2ccc(C[*:2])cc2)ccc1C[*:1]; mXylylene = c1cc(C[*:1])cc(C[*:2])c1; pXylylene = c1cc(C[*:2])ccc1C[*:1]; X1 = C(=CC[*:2])C[*:1]
Assays:
[1] = 48 hours cytotoxicity assay (CellTiter-Glo), liver toxicity; format: cell-based, human
From the text: (§1) In some embodiments, a peptide provided herein has hepatic toxicity that is at least 10% (e.g., at least 15%, at least 20%, at least 25%, at least 30%, at least 35%, at least 40%, at least 45%, at least 50%, at least 55%, at least 60%, at least 65%, at least 65%, at least 70%, at least 75%, at least 80%, at least 85%, at least 90%, at least 95%, at least 99%) lower than the hepatic toxicity of the reference. The hepatic toxicity of a peptide can be measured in vitro using a human liver cells (e.g., HepG2) toxicity assay.
(§2) Cell culture: RPTEC were maintained in MEM media supplemented with growth factors. HEPG2 cell line was maintained in Eagle's Minimum Essential Medium (EMEM) supplemented with fetal bovine serum to a final concentration of 10%.
48 hours cytotoxicity assay: Cells were plated in a 96-well format, and after 4 hour incubation to allow attachment, serial dilutions of StAMPs from a 5 mg/mL water stock, or vehicle, were then added to the cells in a final volume of 100 μl. After incubating at 37° C. for 48 hours, 100 μl of CellTiter-Glo® reagent was added to the cells, and the plates were incubated 10 minutes at room temperature. Luminescence was then measured on a microplate reader.
(§3) Renal toxicity was measured after 90 minutes of incubation, while liver toxicity was measured after 48 hours of incubation with StAMPs. N/A=not tested.

[2] = 90 minute cytotoxicity assay (LDH release), renal toxicity; format: cell-based
From the text: as §1, with “renal” for “hepatic”, “renal proximal tubule epithelial cell (RPTEC) renal” for “human liver cells (e.g., HepG2)”
as §2
90 minute cytotoxicity assay: Cells were plated in a 96-well format, and after overnight incubation, media was replaced with fresh media. Serial dilutions of StAMPs from a 5 mg/mL water stock, or vehicle, were added to the cells in a final volume of 100 μl. After incubating at 37° C. for 90 min, 50 μl of cell culture media was transferred to a clear 96-well plate, incubated with 50 μl of lactate dehydrogenase (LDH) assay reagent for 10 min, and absorbance measured at 490 nm on a microplate reader.
as §3

CC[C@H](C)[C@H](NC(=O)CN)C(=O)N[C@@H](Cc1ccccc1)C(=O)N[C@@H](CO)C(=O)N[C@@H](CCCCN)C(=O)N[C@@H](CC(C)C)C(=O)N[C@H]1CSCC=CCSC[C@@H](C(=O)N[C@@H](CCCCN)C(=O)N[C@@H](CC(N)=O)C(=O)N[C@@H](CC(C)C)C(=O)N[C@@H](CC(C)C)C(=O)N[C@H](C(=O)N[C@@H](CO)C(=O)NCC(=O)N[C@@H](CC(C)C)C(=O)N[C@@H](CCCCN)C(=O)NCC(N)=O)[C@@H](C)CC)NC(=O)[C@H](CCCCN)NC(=O)[C@H](CCCCN)NC(=O)CNC1=O [compound 4] (H-GIFSKLCGKKCKNLLISGLKG-NH2; linker 7-11 via X1; N-terminus assumed)
IC50 [1]: 98 µg/mL (≈ 43.4 µM) | IC50 [2]: ~200 µg/mL (≈ 88.5 µM)

CC[C@H](C)[C@H](NC(=O)CN)C(=O)N[C@@H](Cc1ccccc1)C(=O)N[C@H]1CSCc2cccc(c2)CSC[C@@H](C(=O)N[C@@H](CCCCN)C(=O)N[C@@H](CCCCN)C(=O)N[C@H](C(=O)N[C@@H](CCCCN)C(=O)N[C@@H](CC(N)=O)C(=O)N[C@@H](CC(C)C)C(=O)N[C@@H](CC(C)C)C(=O)N[C@H](C(=O)N[C@@H](CO)C(=O)NCC(=O)N[C@@H](CC(C)C)C(=O)N[C@@H](CCCCN)C(=O)NCC(N)=O)[C@@H](C)CC)[C@@H](C)CC)NC(=O)[C@H](C)NC(=O)[C@H](CC(C)C)NC(=O)[C@H](CCCCN)NC1=O [compound 5] (H-GIFCKLACKKIKNLLISGLKG-NH2; linker 4-8 via mXylylene; N-terminus assumed)
IC50 [1]: 23 µg/mL (≈ 9.79 µM) | IC50 [2]: 14 µg/mL (≈ 5.96 µM)

CC[C@H](C)[C@H](NC(=O)CN)C(=O)N[C@@H](Cc1ccccc1)C(=O)N[C@H]1CSCc2ccc(cc2)CSC[C@@H](C(=O)N[C@@H](CCCCN)C(=O)N[C@@H](CCCCN)C(=O)N[C@H](C(=O)N[C@@H](CCCCN)C(=O)N[C@@H](CC(N)=O)C(=O)N[C@@H](CC(C)C)C(=O)N[C@@H](CC(C)C)C(=O)N[C@H](C(=O)N[C@@H](CO)C(=O)NCC(=O)N[C@@H](CC(C)C)C(=O)N[C@@H](CCCCN)C(=O)NCC(N)=O)[C@@H](C)CC)[C@@H](C)CC)NC(=O)[C@H](C)NC(=O)[C@H](CC(C)C)NC(=O)[C@H](CCCCN)NC1=O [compound 6] (H-GIFCKLACKKIKNLLISGLKG-NH2; linker 4-8 via pXylylene; N-terminus assumed)
IC50 [1]: 25 µg/mL (≈ 10.6 µM) | IC50 [2]: 15 µg/mL (≈ 6.39 µM)

CC[C@H](C)[C@H](NC(=O)CN)C(=O)N[C@@H](Cc1ccccc1)C(=O)N[C@@H](CO)C(=O)N[C@@H](CCCCN)C(=O)N[C@@H](CC(C)C)C(=O)N[C@@H](C)C(=O)NCC(=O)N[C@H]1CSCc2ccc(cc2)-c2ccc(cc2)CSC[C@@H](C(=O)N[C@@H](CO)C(=O)NCC(=O)N[C@@H](CC(C)C)C(=O)N[C@@H](CCCCN)C(=O)NCC(N)=O)NC(=O)[C@H](CC(C)C)NC(=O)[C@H](CC(C)C)NC(=O)[C@H](CC(N)=O)NC(=O)[C@H](CCCCN)NC(=O)[C@H]([C@@H](C)CC)NC(=O)[C@H](CCCCN)NC1=O [compound 70] (H-GIFSKLAGCKIKNLLCSGLKG-NH2; linker 9-16 via Biphenyl(4,4'-CH2)2; N-terminus assumed)
IC50 [1]: 23 µg/mL (≈ 9.88 µM)

CC[C@H](C)[C@H](NC(=O)CN)C(=O)N[C@@H](Cc1ccccc1)C(=O)N[C@@H](CO)C(=O)N[C@@H](CCCCN)C(=O)N[C@@H](CC(C)C)C(=O)N[C@@H](C)C(=O)NCC(=O)N[C@@H](CCCCN)C(=O)N[C@H]1CSCc2ccc(cc2)-c2ccc(cc2)CSC[C@@H](C(=O)NCC(=O)N[C@@H](CC(C)C)C(=O)N[C@@H](CCCCN)C(=O)NCC(N)=O)NC(=O)[C@H]([C@@H](C)CC)NC(=O)[C@H](CC(C)C)NC(=O)[C@H](CC(C)C)NC(=O)[C@H](CC(N)=O)NC(=O)[C@H](CCCCN)NC(=O)[C@H]([C@@H](C)CC)NC1=O [compound 74] (H-GIFSKLAGKCIKNLLICGLKG-NH2; linker 10-17 via Biphenyl(4,4'-CH2)2; N-terminus assumed)
IC50 [2]: 4 µg/mL (≈ 1.7 µM)

CC[C@H](C)[C@H](NC(=O)CN)C(=O)N[C@@H](Cc1ccccc1)C(=O)N[C@@H](CO)C(=O)N[C@@H](CCCCN)C(=O)N[C@@H](CC(C)C)C(=O)N[C@@H](C)C(=O)NCC(=O)N[C@@H](CCCCN)C(=O)N[C@@H](CCCCN)C(=O)N[C@H]1CSCc2ccc(cc2)-c2ccc(cc2)CSC[C@@H](C(=O)N[C@@H](CC(C)C)C(=O)N[C@@H](CCCCN)C(=O)NCC(N)=O)NC(=O)[C@H](CO)NC(=O)[C@H]([C@@H](C)CC)NC(=O)[C@H](CC(C)C)NC(=O)[C@H](CC(C)C)NC(=O)[C@H](CC(N)=O)NC(=O)[C@H](CCCCN)NC1=O [compound 76] (H-GIFSKLAGKKCKNLLISCLKG-NH2; linker 11-18 via Biphenyl(4,4'-CH2)2; N-terminus assumed)
IC50 [1]: 23 µg/mL (≈ 9.59 µM)

CC[C@H](C)[C@H](NC(=O)CN)C(=O)N[C@@H](Cc1ccccc1)C(=O)N[C@@H](CO)C(=O)N[C@@H](CCCCN)C(=O)N[C@@H](CC(C)C)C(=O)N[C@@H](C)C(=O)NCC(=O)N[C@@H](CCCCN)C(=O)N[C@@H](CCCCN)C(=O)N[C@H](C(=O)N[C@H]1CSCc2ccc(cc2)-c2ccc(cc2)CSC[C@@H](C(=O)N[C@@H](CCCCN)C(=O)NCC(N)=O)NC(=O)CNC(=O)[C@H](CO)NC(=O)[C@H]([C@@H](C)CC)NC(=O)[C@H](CC(C)C)NC(=O)[C@H](CC(C)C)NC(=O)[C@H](CC(N)=O)NC1=O)[C@@H](C)CC [compound 79] (H-GIFSKLAGKKICNLLISGCKG-NH2; linker 12-19 via Biphenyl(4,4'-CH2)2; N-terminus assumed)
IC50 [1]: 50 µg/mL (≈ 21.5 µM)

CC[C@H](C)[C@H](NC(=O)CN)C(=O)N[C@@H](Cc1ccccc1)C(=O)N[C@@H](CO)C(=O)N[C@@H](CCCCN)C(=O)N[C@@H](CC(C)C)C(=O)N[C@@H](C)C(=O)NCC(=O)N[C@@H](CCCCN)C(=O)N[C@@H](CCCCN)C(=O)N[C@H](C(=O)N[C@@H](CCCCN)C(=O)N[C@@H](CC(N)=O)C(=O)N[C@H]1CSCc2ccc(cc2)-c2ccc(cc2)CSC[C@@H](C(N)=O)NC(=O)[C@H](CCCCN)NC(=O)[C@H](CC(C)C)NC(=O)CNC(=O)[C@H](CO)NC(=O)[C@H]([C@@H](C)CC)NC(=O)[C@H](CC(C)C)NC1=O)[C@@H](C)CC [compound 86] (H-GIFSKLAGKKIKNCLISGLKC-NH2; linker 14-21 via Biphenyl(4,4'-CH2)2; N-terminus assumed)
IC50 [1]: 9 µg/mL (≈ 3.75 µM)

CC[C@H](C)[C@H](NC(=O)CN)C(=O)N[C@@H](Cc1ccccc1)C(=O)N[C@@H](CO)C(=O)N[C@@H](CCCCN)C(=O)N[C@@H](CC(C)C)C(=O)N[C@H]1CSCc2ccc(cc2)CSC[C@@H](C(=O)N[C@@H](CCCCN)C(=O)N[C@@H](CC(N)=O)C(=O)N[C@@H](CC(C)C)C(=O)N[C@@H](CC(C)C)C(=O)N[C@H](C(=O)N[C@H]2CSCc3ccc(cc3)CSC[C@@H](C(N)=O)NC(=O)[C@H](CCCCN)NC(=O)[C@H](CC(C)C)NC(=O)CNC2=O)[C@@H](C)CC)NC(=O)[C@H](CCCCN)NC(=O)[C@H](CCCCN)NC(=O)CNC1=O [compound 90] (H-GIFSKLCGKKCKNLLICGLKC-NH2; linker 7-11, 17-21 via pXylylene; N-terminus assumed)
IC50 ([2]; 90 minutes of incubation, LDH release, read-out: Inhibitory Concentration at 50% Cytotoxicity (IC50) Human Renal Proximal Tubule Epithelial Cells (RPTEC)): > 200 µg/mL

CC[C@H](C)[C@H](NC(=O)CN)C(=O)N[C@@H](Cc1ccccc1)C(=O)N[C@@H](CO)C(=O)N[C@@H](CCCCN)C(=O)N[C@@H](CC(C)C)C(=O)N[C@H]1CSCc2cccc(c2)CSC[C@@H](C(=O)N[C@@H](CCCCN)C(=O)N[C@@H](CC(N)=O)C(=O)N[C@@H](CC(C)C)C(=O)N[C@@H](CC(C)C)C(=O)N[C@H](C(=O)N[C@@H](CO)C(=O)NCC(=O)N[C@@H](CC(C)C)C(=O)N[C@@H](CCCCN)C(=O)NCC(=O)O)[C@@H](C)CC)NC(=O)[C@H](CCCCN)NC(=O)[C@H](CCCCN)NC(=O)CNC1=O [compound 91] (H-GIFSKLCGKKCKNLLISGLKG-OH; linker 7-11 via mXylylene; N-terminus assumed)
IC50 [2]: > 200 µg/mL

Reference: patent US20240391965A1, “STAPLED ANTIMICROBIAL PEPTIDES (STAMPS) AND USES THEREOF” (Lytica Therapeutics, Inc., priority 2021, published 2024)
